PubChem BioAssay AID602167 (The Scripps Research Institute Molecular Screening Center, 2012)
Calls of active or inactive are those of the source. The rule behind the calls is not given here.

Molecular target: transactivating tegument protein VP16 (Human herpesvirus 1), as a GAL4-VP16 activation-domain luciferase reporter
Assay: VP16 transactivation inhibitor potency, dose response, counter-screen for SRC3 inhibitor project, cell-based, luminescence, high throughput, SRC3 series (AID 602167)
Conditions: VP16 transactivation luciferase reporter cells

| IC50 | Structure (SMILES) |
| --- | --- |
| inactive | COc1ccc(C)cc1NS(=O)(=O)c1ccc(NC(=O)CN(c2cc([N+](=O)[O-])ccc2C)S(C)(=O)=O)cc1 |
| > 35.9 µM (inactive) | CN[C@H]1CCc2cc(OC)c(OC)c(OC)c2-c2ccc(OC)c(=O)cc21 |
| 9.18 µM | O=[N+]([O-])c1nn(-c2ccc3c(c2)OCCO3)n(O)c1=Nc1ccccc1 |
| > 12 µM (inactive) | COc1cc(/C=N/NC(N)=S)cc(Br)c1OCc1ccccc1F |
| > 35.9 µM (inactive) | CC(C)(C)C(=O)Nc1ccc(N=Nc2ccccc2)cc1 |
| inactive | O=C(CCCc1nc(-c2ccccc2Cl)no1)NC1CCCC1 |
| > 35.9 µM (inactive) | COc1ccc(OC)c(Cc2cnc3nc(N)nc(N)c3c2C)c1 |
